According to PubChem BioAssay AID1918995 (Molecular Pharmacology Branch, DTP, NCI, 2023):
Where “and” joins values, the source holds several entries; their conditions need not be identical. Equal values may be shown once.

Tested on: 324938-238-R-J1-PDC complex spheroid growth, % test/control
Assay: Anticancer human tumor 324938-238-R-J1-PDC patient-derived bladder carcinoma cell line growth inhibition [AhR]
Conditions: for viability, T/C: stronger effect = lower value
Procedure, shortened: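 Agents were dosed in half-log steps down from roughly clinical Cmax, or from 10 microM where Cmax was unknown, alone and with AhR antagonists. Read-out: percent test/control growth of tumor spheroids containing HUVEC and MSC stromal cells.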

[1] = curve of first compound, second compound 0.1 µM
[2] = curve of first compound, second compound 0.316 µM
[3] = curve of first compound, second compound 1 µM
[4] = curve of first compound, second compound 3.16 µM
[5] = curve of first compound, second compound 10 µM
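Further: spheroids exposed to agents for seven days before viability read.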

**Q.** What does the source list for `CCN(c1cc(-c2ccc(CN3CCOCC3)cc2)cc(C(=O)NCc2c(C)cc(C)[nH]c2=O)c1C)C1CCOCC1` + CC(CO)NC(=O)c1cc(-c2ccc(Cl)cc2)nn(-c2cnn(C)c2)c1=O?
**A.** IC50 [1]: > 3 µM; IC50 [2]: > 3 µM; IC50 [3]: > 3 µM; IC50 [4]: > 3 µM; IC50 [5]: > 3 µM; viability, T/C (second compound 0.1 µM, first compound 0.00949 µM): 105%; viability, T/C (second compound 0.1 µM, first compound 0.03 µM): 114%; viability, T/C (second compound 0.1 µM, first compound 0.0949 µM): 107%; viability, T/C (second compound 0.1 µM, first compound 0.3 µM): 101%; viability, T/C (second compound 0.1 µM, first compound 0.949 µM): 95%; viability, T/C (second compound 0.1 µM, first compound 3 µM): 101%; viability, T/C (second compound 0.316 µM, first compound 0.00949 µM): 102%; viability, T/C (second compound 0.316 µM, first compound 0.03 µM): 96.3%; viability, T/C (second compound 0.316 µM, first compound 0.0949 µM): 92.8%; viability, T/C (second compound 0.316 µM, first compound 0.3 µM): 94.8%; viability, T/C (second compound 0.316 µM, first compound 0.949 µM): 96.6%; viability, T/C (second compound 0.316 µM, first compound 3 µM): 93.2%; viability, T/C (second compound 1 µM, first compound 0.00949 µM): 88%; viability, T/C (second compound 1 µM, first compound 0.03 µM): 92.4%; viability, T/C (second compound 1 µM, first compound 0.0949 µM): 89.2%; viability, T/C (second compound 1 µM, first compound 0.3 µM): 98.3%; viability, T/C (second compound 1 µM, first compound 0.949 µM): 90.2%; viability, T/C (second compound 1 µM, first compound 3 µM): 88.9%; viability, T/C (second compound 3.16 µM, first compound 0.00949 µM): 79.3%; viability, T/C (second compound 3.16 µM, first compound 0.03 µM): 80.6%; viability, T/C (second compound 3.16 µM, first compound 0.0949 µM): 76.7%; viability, T/C (second compound 3.16 µM, first compound 0.3 µM): 72.5%; viability, T/C (second compound 3.16 µM, first compound 0.949 µM): 77.3%; viability, T/C (second compound 3.16 µM, first compound 3 µM): 77.6%; viability, T/C (second compound 10 µM, first compound 0.00949 µM): 70.4%; viability, T/C (second compound 10 µM, first compound 0.03 µM): 69%; viability, T/C (second compound 10 µM, first compound 0.0949 µM): 67.5%; viability, T/C (second compound 10 µM, first compound 0.3 µM): 77.3%; viability, T/C (second compound 10 µM, first compound 0.949 µM): 66.3%; viability, T/C (second compound 10 µM, first compound 3 µM): 74.1%

**Q.** `CC1COCCN1c1cc(C2(S(C)(=N)=O)CC2)nc(-c2ccnc3[nH]ccc23)n1` (configuration not stated) + Cc1cncc(-c2nc(NCCc3c[nH]c4ccccc34)c3ncn(C(C)C)c3n2)c1 was tested. Which IC50 [1] did it give?
**A.** Its IC50 is over 10 µM.

**Q.** What about the IC50 [2] of the same compound?
**A.** The IC50 was over 10 µM.

**Q.** And the IC50 [3]?
**A.** The IC50 was over 10 µM.

**Q.** What about the IC50 [4] of the same compound?
**A.** The IC50 was over 10 µM.

**Q.** And the IC50 [5]?
**A.** The IC50 was under 0.0316 µM.

**Q.** And the viability, T/C (second compound 0.1 µM, first compound 0.0316 µM)?
**A.** Its viability, T/C is 112%.

**Q.** And the viability, T/C (second compound 0.1 µM, first compound 0.1 µM)?
**A.** The viability, T/C was 126%.

**Q.** What about the viability, T/C (second compound 0.1 µM, first compound 0.316 µM) of the same compound?
**A.** The viability, T/C was 90.9%.

**Q.** And the viability, T/C (second compound 0.1 µM, first compound 1 µM)?
**A.** Its viability, T/C is 93.4%.

**Q.** And the viability, T/C (second compound 0.1 µM, first compound 3.16 µM)?
**A.** Its viability, T/C is 93.2%.

**Q.** What about the viability, T/C (second compound 0.1 µM, first compound 10 µM) of the same compound?
**A.** The viability, T/C was 74.2%.

**Q.** What about the viability, T/C (second compound 0.316 µM, first compound 0.0316 µM) of the same compound?
**A.** The viability, T/C was 98.4%.

**Q.** What about the viability, T/C (second compound 0.316 µM, first compound 0.1 µM) of the same compound?
**A.** The viability, T/C was 127%.

**Q.** What about the viability, T/C (second compound 0.316 µM, first compound 0.316 µM) of the same compound?
**A.** Its viability, T/C is 127%.

**Q.** And the viability, T/C (second compound 0.316 µM, first compound 1 µM)?
**A.** The viability, T/C was 110%.

**Q.** And the viability, T/C (second compound 0.316 µM, first compound 3.16 µM)?
**A.** The viability, T/C was 70.2%.

**Q.** What about the viability, T/C (second compound 0.316 µM, first compound 10 µM) of the same compound?
**A.** Its viability, T/C is 86.7%.

**Q.** And the viability, T/C (second compound 1 µM, first compound 0.0316 µM)?
**A.** Its viability, T/C is 111%.

**Q.** What about the viability, T/C (second compound 1 µM, first compound 0.1 µM) of the same compound?
**A.** Its viability, T/C is 109%.

**Q.** What about the viability, T/C (second compound 1 µM, first compound 0.316 µM) of the same compound?
**A.** The viability, T/C was 108%.

**Q.** What about the viability, T/C (second compound 1 µM, first compound 1 µM) of the same compound?
**A.** The viability, T/C was 96.4%.

**Q.** And the viability, T/C (second compound 1 µM, first compound 3.16 µM)?
**A.** The viability, T/C was 87.5%.

**Q.** And the viability, T/C (second compound 1 µM, first compound 10 µM)?
**A.** The viability, T/C was 73.5%.

**Q.** And the viability, T/C (second compound 3.16 µM, first compound 0.0316 µM)?
**A.** Its viability, T/C is 80.5%.

**Q.** And the viability, T/C (second compound 3.16 µM, first compound 0.1 µM)?
**A.** Its viability, T/C is 92.5%.

**Q.** What about the viability, T/C (second compound 3.16 µM, first compound 0.316 µM) of the same compound?
**A.** Its viability, T/C is 89.8%.

**Q.** What about the viability, T/C (second compound 3.16 µM, first compound 1 µM) of the same compound?
**A.** Its viability, T/C is 109%.

**Q.** What about the viability, T/C (second compound 3.16 µM, first compound 3.16 µM) of the same compound?
**A.** Its viability, T/C is 87.1%.

**Q.** And the viability, T/C (second compound 3.16 µM, first compound 10 µM)?
**A.** The viability, T/C was 81.1%.

**Q.** What about the viability, T/C (second compound 10 µM, first compound 0.0316 µM) of the same compound?
**A.** The viability, T/C was 8.69%.

**Q.** What about the viability, T/C (second compound 10 µM, first compound 0.1 µM) of the same compound?
**A.** Its viability, T/C is 13.3%.

**Q.** And the viability, T/C (second compound 10 µM, first compound 0.316 µM)?
**A.** The viability, T/C was 17.8%.

**Q.** And the viability, T/C (second compound 10 µM, first compound 1 µM)?
**A.** The viability, T/C was 14.7%.

**Q.** And the viability, T/C (second compound 10 µM, first compound 3.16 µM)?
**A.** Its viability, T/C is 8.67%.

**Q.** What about the viability, T/C (second compound 10 µM, first compound 10 µM) of the same compound?
**A.** The viability, T/C was 5.3%.

**Q.** With `CC1COCCN1c1cc(C2(S(C)(=N)=O)CC2)nc(-c2ccnc3[nH]ccc23)n1` (configuration not stated) as the compound, how does the viability, T/C (compound 0.0316 µM) read?
**A.** Its viability, T/C is 93% and 98% and 106%.

**Q.** And the viability, T/C (compound 0.1 µM)?
**A.** The viability, T/C was 114% and 112% and 116%.

**Q.** And the viability, T/C (compound 0.316 µM)?
**A.** The viability, T/C was 90% and 106% and 85.7%.

**Q.** What about the viability, T/C (compound 1 µM) of the same compound?
**A.** The viability, T/C was 93.9% and 90.2% and 86.4%.

**Q.** And the viability, T/C (compound 3.16 µM)?
**A.** Its viability, T/C is 76.7% and 70.4% and 43.9%.

**Q.** What about the viability, T/C (compound 10 µM) of the same compound?
**A.** Its viability, T/C is 77.1% and 33.6% and 25.4%.

**Q.** What about the IC50 (curve of compound) of the same compound?
**A.** The IC50 was > 10 µM and 5.91 µM and 2.94 µM.
